Test results as given in US20050227266A1, “Biomarker:compound correlations in cancer diagnosis and therapy” (priority 2004, published 2005).

System: NCI60 cell lines
Conditions: not told
Description: Compounds are tested according to a standard protocol (dtp.nci.nih.gov/branches/btb/ivclsp.html, reproduced as Appendix B), and GI50 data (i.e., data indicating the concentration of a compound that inhibits growth of a particular cell line by 50% after 48 hours of exposure) for many compounds, including a set of 171 so-called Standard Agents (dtp.nci.nih.gov/docs/cancer/searches/standard_agent.html, reproduced as Appendix C) are made publicly available.
Inventive biomarker:compound correlations are established by comparing the expression/activity expression and compound toxicity datasets. […] Such comparisons can quantify the association between the variables, e.g., using a Pearson or Spearman correlation. […] For example, to aid in the identification of non-linear relationships between compound toxicity and presence of a biomarker (e.g., a threshold response), values above or below a certain limit may be given a common value, or weighted, before the comparison is measured.
The present inventors established a gene expression profile for each of the 59 publicly-available NCI60 cell lines. […] Specifically, cDNAs that were detectable in fewer than 80% of the cell lines were discarded; approximately 17,000 unique genes were left whose measurements were recorded. […]

Compound: CC(=O)O[C@H]1C(=O)[C@@]2(C)[C@H]([C@H](OC(=O)c3ccccc3)[C@]3(O)C[C@H](OC(=O)[C@H](O)[C@@H](NC(=O)c4ccccc4)c4ccccc4)C(C)=C1C3(C)C)[C@]1(OC(C)=O)CO[C@@H]1C[C@@H]2O [Paclitaxol]
- correlation of toxicity pattern with ABCB1 (PGP) gene expression: highest negative correlation
